Test results taken from the supplement of paper PMC10307832.

Key:
Assay in all cases: relative viability (nuclei count vs DMSO), 5 days (fraction); higher = more cells survive
[1] = compound: C1CC2=C(C1)C=C(C=C2)OC3=NC(=C4C(=N3)N(C=N4)CC5=CC=C(C=C5)C6=CC=CC=C6)N[C@@H](CC7=CC=CC=C7)CO [QS11] + Cc1nc(Nc2ncc(C(=O)Nc3c(C)cccc3Cl)s2)cc(N2CCN(CCO)CC2)n1 [Dasatinib] (partner 0.075 µM)
Outline: (§1)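 A single step with final 0.05% Triton X-100, 1% formaldehyde and 1 ug/ml Hoechst fixed the cells and stained nuclei 5 days after treatment. Lung cancer cell lines in 1536-well plates had been treated by pin tool the day after seeding with one drug alone or a fixed anchor-drug dose plus five library-drug doses (not always all listed) in √10 steps, and nuclei were counted on 4× images. Relative viability is the ratio of nuclei in treated wells to nuclei in vehicle wells, taken as the median of duplicate plates.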

[2] = compound: C[As](C)SC[C@H](NC(=O)CC[C@H](N)C(=O)O)C(=O)NCC(=O)O [Darinaparsin] + O=C(CCCCCCC(=O)Nc1ccccc1)NO [Vorinostat] (partner 1 µM)
Outline: as §1

[3] = compound: C[As](C)SC[C@H](NC(=O)CC[C@H](N)C(=O)O)C(=O)NCC(=O)O [Darinaparsin] + COc1cc2c(Oc3ccc(NC(=O)C4(C(=O)Nc5ccc(F)cc5)CC4)cc3F)ccnc2cc1OCCCN1CCOCC1 [Foretinib] (partner 0.25 µM)
Outline: as §1

[4] = compound: CC1=C(C=C(C=C1)NC(=O)C2=CC(=CC=C2)C(C)(C)C#N)NC3=CC4=C(C=C3)N=CN(C4=O)C [AZ628] + C[C@@H](Oc1cc(-c2cnn(C3CCNCC3)c2)cnc1N)c1c(Cl)ccc(F)c1Cl [Crizotinib] (partner 1 µM)
Outline: as §1

[5] = compound: C1CC2=C(C1)C=C(C=C2)OC3=NC(=C4C(=N3)N(C=N4)CC5=CC=C(C=C5)C6=CC=CC=C6)N[C@@H](CC7=CC=CC=C7)CO [QS11] + NC(=O)Nc1cc(-c2cccc(F)c2)sc1C(=O)N[C@H]1CCCNC1 [AZD7762] (partner 0.2 µM)
Outline: as §1

LCLC-97TM1
relative viability ([1]; first compound 0.08 µM): 0.777
relative viability ([1]; first compound 0.253 µM): 0.932
relative viability ([1]; first compound 2.53 µM): 0.868
relative viability ([1]; first compound 8 µM): 1.01
relative viability ([2]; first compound 0.08 µM): 0.882
relative viability ([2]; first compound 0.8 µM): 0.862
relative viability ([2]; first compound 2.53 µM): 0.744
relative viability ([2]; first compound 8 µM): 0.895
relative viability ([3]; first compound 0.08 µM): 0.981
relative viability ([3]; first compound 0.8 µM): 0.882
relative viability ([3]; first compound 2.53 µM): 0.824
relative viability ([3]; first compound 8 µM): 1.04
relative viability ([4]; first compound 0.08 µM): 0.741
relative viability ([4]; first compound 0.253 µM): 0.501
relative viability ([4]; first compound 0.8 µM): 0.352
relative viability ([4]; first compound 2.53 µM): 0.413
relative viability ([4]; first compound 8 µM): 0.205
relative viability ([5]; first compound 0.253 µM): 0.192
relative viability ([5]; first compound 2.53 µM): 0.27
relative viability ([5]; first compound 8 µM): 0.418
